# In paper PMC5385555, “Molecular basis for the behavioral effects of the odorant degrading enzyme Esterase 6 in Drosophila” (Scientific Reports, 2017):
# Target: T1, LUSH (Drosophila melanogaster, UniProt O02372)
# T1 sequence (O02372 30-153): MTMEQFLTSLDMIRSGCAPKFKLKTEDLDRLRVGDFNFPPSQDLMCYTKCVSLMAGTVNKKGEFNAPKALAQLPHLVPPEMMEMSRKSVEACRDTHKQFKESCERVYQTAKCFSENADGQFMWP
# Test: fluorescence titration
# Assay type: binding
# Settings: read-out: dissociation constant
# Description: fluorescence titration on LUSH | A saturable NPN fluorescence change was recorded by a fluorometer and the dissociation constant
structure (smiles),measurement,value
c1ccc(Nc2cccc3ccccc23)cc1 [N-phenyl-1-naphthylamine],Kd,2.39 µM
